By IC50 is commonly meant the point on the concentration scale where inhibition reaches its midpoint.

For one assay, the target named is T1, HCMV polymerase (Human cytomegalovirus, UniProt P08546).
T1 construct: made in house; host or cells: recombinant baculovirus-infected SF-9 cells
T1 sequence (P08546 whole entry): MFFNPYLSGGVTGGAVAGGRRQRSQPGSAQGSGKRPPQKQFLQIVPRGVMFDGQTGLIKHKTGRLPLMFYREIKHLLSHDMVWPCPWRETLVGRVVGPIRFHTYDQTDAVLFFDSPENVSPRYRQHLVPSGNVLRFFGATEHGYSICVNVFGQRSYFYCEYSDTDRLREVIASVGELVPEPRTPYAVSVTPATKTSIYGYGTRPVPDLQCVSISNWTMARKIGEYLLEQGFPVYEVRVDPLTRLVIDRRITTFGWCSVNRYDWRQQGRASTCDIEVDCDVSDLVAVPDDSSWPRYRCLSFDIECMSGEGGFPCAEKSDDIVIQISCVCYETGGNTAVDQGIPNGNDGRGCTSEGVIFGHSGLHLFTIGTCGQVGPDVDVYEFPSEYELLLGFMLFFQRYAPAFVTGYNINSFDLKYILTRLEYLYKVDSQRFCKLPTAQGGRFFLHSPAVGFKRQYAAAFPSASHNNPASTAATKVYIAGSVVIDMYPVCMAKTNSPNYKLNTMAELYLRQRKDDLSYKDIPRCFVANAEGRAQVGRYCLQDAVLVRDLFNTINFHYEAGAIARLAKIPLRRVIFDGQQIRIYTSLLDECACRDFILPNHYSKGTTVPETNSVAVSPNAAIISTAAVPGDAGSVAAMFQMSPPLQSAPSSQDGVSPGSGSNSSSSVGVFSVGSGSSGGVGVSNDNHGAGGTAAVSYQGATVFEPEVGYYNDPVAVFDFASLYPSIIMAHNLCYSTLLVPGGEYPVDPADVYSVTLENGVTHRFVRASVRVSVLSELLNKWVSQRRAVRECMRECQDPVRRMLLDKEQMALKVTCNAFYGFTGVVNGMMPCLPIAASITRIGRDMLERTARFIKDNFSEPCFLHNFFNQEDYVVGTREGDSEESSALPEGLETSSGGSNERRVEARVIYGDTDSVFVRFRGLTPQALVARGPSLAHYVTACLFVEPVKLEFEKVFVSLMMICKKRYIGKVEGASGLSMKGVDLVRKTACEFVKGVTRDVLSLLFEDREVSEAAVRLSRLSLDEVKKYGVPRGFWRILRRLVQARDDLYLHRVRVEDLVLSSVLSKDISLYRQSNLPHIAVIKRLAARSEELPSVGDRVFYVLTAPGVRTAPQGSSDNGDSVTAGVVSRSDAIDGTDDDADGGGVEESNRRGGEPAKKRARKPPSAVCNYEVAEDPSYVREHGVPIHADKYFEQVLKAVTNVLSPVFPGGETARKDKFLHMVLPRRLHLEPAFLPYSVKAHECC
Briefly: HCMV polymerase scintillation proximity assay (SPA), modified version. Type of assay: biochemical. The conditions noted are these: Antiviral Selective Polymerase IC50 Values, CMV, Table 1, modified assay with 4.5 mM DTT, compounds in 100% DMSO. In a few lines: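 Recombinant polymerase (baculovirus/SF-9) in 5.4 mM HEPES pH 7.5, 11.7 mM KCl, 4.5 mM MgCl2, 0.36 mg/ml BSA, 90 nM 3H-dTTP, ±2 mM CHAPS; started with 6 nM biotinylated poly(dA)-oligo(dT), 25° C or 37° C, EDTA-stopped in linear range (30 min for HCMV). Streptavidin-SPA read; IC50 by linear regression. Modified version: 100% DMSO compound dilution, 4.5 mM DTT added.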
For the compound `O=C(NCc1ccc(Cl)cc1)c1cnc2c(F)cc(S(=O)(=O)NCCBr)cc2c1O` [Example 244, 6-{[(2-bromoethyl)amino]sulfonyl}-N-(4-chlorobenzyl)-8-fluoro-4-hydroxy-3-quinolinecarboxamide], the IC50 is 19 µM.
In turn, `O=C(NCc1ccc(Cl)cc1)c1cnc2c(F)cc(S(=O)(=O)NCCCl)cc2c1O` [Example 245, N-(4-chlorobenzyl)-6-{[(2-chloroethyl)amino]sulfonyl}-8-fluoro-4-hydroxy-3-quinolinecarboxamide] had an IC50 of 13.3 µM.

Staying with this assay, now noted: CMV polymerase; Table 1; modified assay with 4.5 mM DTT, compounds in 100% DMSO; read-out: Antiviral Selective Polymerase IC50 Values, CMV.
Turning to `O=C(NCc1ccc(Cl)cc1)c1cnc2c(F)cc(S(=O)(=O)NCC(F)(F)F)cc2c1O` [Example 243, N-(4-chlorobenzyl)-8-fluoro-4-hydroxy-6-{[(2,2,2-trifluoroethyl)amino]sulfonyl}-3-quinolinecarboxamide], the IC50 turned out to be 15.5 µM.
The same measure, in the same setting: the figure for `O=C(NCc1ccc(Cl)cc1)c1cnc2c(F)cc(S(=O)(=O)NCCc3ccc(O)c(O)c3)cc2c1O` [Example 246, N-(4-chlorobenzyl)-6-{[(3,4-dihydroxyphenethyl)amino]-sulfonyl}-8-fluoro-4-hydroxy-3-quinolinecarboxamide] is 8.6 µM.
On the same count and under the same terms, under `CCSCCNS(=O)(=O)c1cc(F)c2ncc(C(=O)NCc3ccc(Cl)cc3)c(O)c2c1` [Example 247] stands 10.2 µM; under `O=C(NCc1ccc(Cl)cc1)c1cnc2c(F)cc(S(=O)(=O)NCCCBr)cc2c1O` [Example 248, 6-{[(3-bromopropyl)amino]sulfonyl}-N-(4-chlorobenzyl)-8-fluoro-4-hydroxy-3-quinolinecarboxamide], 11.6 µM.
The same measure, in the same setting: under `NS(=O)(=O)c1ccc(CNS(=O)(=O)c2cc(F)c3ncc(C(=O)NCc4ccc(Cl)cc4)c(O)c3c2)cc1` [Example 249, 6-({[4-(aminosulfonyl)benzyl]amino}sulfonyl)-N-(4-chlorobenzyl)-8-fluoro-4-hydroxy-3-quinolinecarboxamide] stands 7.6 µM.
Take `O=C(NCc1ccc(Cl)cc1)c1cnc2c(F)cc(S(=O)(=O)NCCN(CCO)CCO)cc2c1O` [Example 250, 6-[({2-[bis(2-hydroxyethyl)amino]ethyl}amino)sulfonyl]-N-(4-chlorobenzyl)-8-fluoro-4-hydroxy-3-quinolinecarboxamide]: the IC50 worked out at 45.2 µM.
Still for that read-out and setting: the figure for `CCSCCNS(=O)(=O)c1cc(F)c2ncc(C(=O)NCc3ccc(Cl)cc3)c(O)c2c1` [Example 251, N-(4-chlorobenzyl)-6-({[2-(ethylsulfanyl)ethyl]amino}sulfonyl)-8-fluoro-4-hydroxy-3-quinolinecarboxamide] is 18.7 µM; for `Cc1ccc(CNS(=O)(=O)c2cc(F)c3ncc(C(=O)NCc4ccc(Cl)cc4)c(O)c3c2)cc1C` [Example 252, N-(4-chlorobenzyl)-6-{[(3,4-dimethylbenzyl)amino]sulfonyl}-8-fluoro-4-hydroxy-3-quinolinecarboxamide] it is 18.9 µM.
As to `O=C(NCc1ccc(Cl)cc1)c1cnc2c(F)cc(S(=O)(=O)NCC3CC3)cc2c1O` [Example 253, N-(4-chlorobenzyl)-6-{[(cyclopropylmethyl)amino]sulfonyl}-8-fluoro-4-hydroxy-3-quinolinecarboxamide], the IC50 came out at 20.6 µM.
As to `O=C(NCc1ccc(Cl)cc1)c1cnc2c(F)cc(S(=O)(=O)NCc3ccc(Br)cc3)cc2c1O` [Example 254, 6-{[(4-bromobenzyl)amino]sulfonyl}-N-(4-chlorobenzyl)-8-fluoro-4-hydroxy-3-quinolinecarboxamide], the IC50 was determined as 14.7 µM.
Same read-out and setting: under `O=C(NCc1ccc(Cl)cc1)c1cnc2c(F)cc(S(=O)(=O)NCCc3cccs3)cc2c1O` [Example 255, N-(4-chlorobenzyl)-8-fluoro-4-hydroxy-6-({[2-(2-thienyl)ethyl]amino}sulfonyl)-3-quinolinecarboxamide] stands 12.1 µM; under `O=C(NCc1ccc(Cl)cc1)c1cnc2c(F)cc(S(=O)(=O)NCCOc3ccccc3)cc2c1O` [Example 256, N-(4-chlorobenzyl)-8-fluoro-4-hydroxy-6-{[(2-phenoxyethyl)amino]sulfonyl}-3-quinolinecarboxamide], 9.3 µM; under `CC(C)(C)OC(=O)CNS(=O)(=O)c1cc(F)c2ncc(C(=O)NCc3ccc(Cl)cc3)c(O)c2c1` [Example 257, tert-butyl 2-{[(3-{[(4-chlorobenzyl)amino]carbonyl}-8-fluoro-4-hydroxy-6-quinolinyl)sulfonyl]amino}acetate], 16.3 µM.
The same measure, in the same setting: under `CC(C)(C)OC(=O)CCNS(=O)(=O)c1cc(F)c2ncc(C(=O)NCc3ccc(Cl)cc3)c(O)c2c1` [Example 258, tert-butyl 3-{[(3-{[(4-chlorobenzyl)amino]carbonyl}-8-fluoro-4-hydroxy-6-quinolinyl)sulfonyl]amino}propanoate] stands 15.2 µM; under `O=C(NCc1ccc(Cl)cc1)c1cnc2c(F)cc(S(=O)(=O)NCc3cccc(OC(F)(F)F)c3)cc2c1O` [Example 259, N-(4-chlorobenzyl)-8-fluoro-4-hydroxy-6-({[3-(trifluoro-methoxy)benzyl]amino}sulfonyl)-3-quinolinecarboxamide], 6.1 µM.
Still for that read-out and setting: under `O=C(NCc1ccc(Cl)cc1)c1cnc2c(F)cc(S(=O)(=O)NCc3ccccc3Sc3ccccc3CO)cc2c1O` [Example 260] stands 5.7 µM; under `O=C(NCc1ccc(Cl)cc1)c1cnc2c(F)cc(S(=O)(=O)NCc3ccc(-c4csnn4)cc3)cc2c1O` [Example 261, N-(4-chlorobenzyl)-8-fluoro-4-hydroxy-6-({[4-(1,2,3-thiadiazol-4-yl)benzyl]amino}sulfonyl)-3-quinolinecarboxamide], 15.1 µM.
For `O=C(NCc1ccc(Cl)cc1)c1cnc2c(F)cc(S(=O)(=O)NCc3ccc(Cl)cc3F)cc2c1O` [Example 262, N-(4-chlorobenzyl)-6-{[(4-chloro-2-fluorobenzyl)amino]sulfonyl}-8-fluoro-4-hydroxy-3-quinolinecarboxamide], the IC50 was 9.9 µM.
Same read-out and setting: the figure for `O=C(NCc1ccc(Cl)cc1)c1cnc2c(F)cc(S(=O)(=O)NCCSCCO)cc2c1O` [Example 263, N-(4-chlorobenzyl)-8-fluoro-4-hydroxy-6-[({2-[(2-hydroxyethyl)-sulfanyl]ethyl}amino)sulfonyl]-3-quinolinecarboxamide] is 23.1 µM; for `CC(C)(N)CNS(=O)(=O)c1cc(F)c2ncc(C(=O)NCc3ccc(Cl)cc3)c(O)c2c1` [Example 264, 6-{[(2-amino-2-methylpropyl)amino]sulfonyl}-N-(4-chlorobenzyl)-8-fluoro-4-hydroxy-3-quinolinecarboxamide] it is 90.2 µM; for `NC(=O)CNS(=O)(=O)c1cc(F)c2ncc(C(=O)NCc3ccc(Cl)cc3)c(O)c2c1` [Example 265, 6-{[(2-amino-2-oxoethyl)amino]sulfonyl}-N-(4-chlorobenzyl)-8-fluoro-4-hydroxy-3-quinolinecarboxamide] it is 11.4 µM.
Still for that read-out and setting: the figure for `Nc1ccc(CNS(=O)(=O)c2cc(F)c3ncc(C(=O)NCc4ccc(Cl)cc4)c(O)c3c2)cc1` [Example 266, 6-{[(4-aminobenzyl)amino]sulfonyl}-N-(4-chlorobenzyl)-8-fluoro-4-hydroxy-3-quinolinecarboxamide] is 10.1 µM; for `CC(C)(C)OP(=O)(OCCCc1cc(F)c2ncc(C(=O)NCc3ccc(Cl)cc3)c(O)c2c1)OC(C)(C)C` [Example 267, Di(tert-butyl) 3-(3-{[(4-chlorobenzyl)amino]carbonyl}-8-fluoro-4-hydroxy-6-quinolinyl)propyl phosphate] it is 52.2 µM; for `O=C(NCc1ccc(Cl)cc1)c1cnc2c(F)cc(CCCOP(=O)(O)O)cc2c1O` [Example 268, 3-(3-{[(4-Chlorobenzyl)amino]carbonyl}-8-fluoro-4-hydroxy-6-quinolinyl)propyl dihydrogen phosphate] it is 9.5 µM.
On the same count and under the same terms, the figure for `O=C(NCc1ccc(Cl)cc1)c1cnc2ccc(CCCOP(=O)(O)O)cc2c1O` [Example 269, 3-(3-{[(4-Chlorobenzyl)amino]carbonyl-4-hydroxy-6-quinolinyl)propyldihydrogen phosphate] is 9.8 µM; for `CC(C)(C)O[PH](=O)OCCCc1ccc2ncc(C(=O)NCc3ccc(Cl)cc3)c(O)c2c1` (stereo not drawn) [Example 270, tert-Butyl 3-(3-{[(4-chlorobenzyl)amino]carbonyl}-4-hydroxy-6-quinolinyl)propyl phosphonate] it is 2.8 µM; for `CC(C)(C)O[PH](=O)OCCCc1cc(F)c2ncc(C(=O)NCc3ccc(Cl)cc3)c(O)c2c1` (stereo not drawn) [Example 271, tert-Butyl 3-(3-{[(4-chlorobenzyl)amino]carbonyl}-8-fluoro-4-hydroxy-6-quinolinyl)propyl phosphonate] it is 20.4 µM.
Regarding `O=C(NCc1ccc(Cl)cc1)c1cnc2ccc(CCCO[PH](=O)O)cc2c1O` [Example 272, 3-(3-{[(4-Chlorobenzyl)amino]carbonyl}-4-hydroxy-6-quinolinyl)propyl hydrogen phosphonate], the IC50 was found to be 8.6 µM.
Still for that read-out and setting: the figure for `CN(CCS(=O)(=O)O)C(=O)CCCCCCC(=O)OCC#Cc1cc(F)c2ncc(C(=O)NCc3ccc(Cl)cc3)c(O)c2c1` [Example 275] is 28.4 µM.
For `O=C(NCc1ccc(Cl)cc1)c1cnc2cc(S(=O)(=O)NCc3cccc4ccccc34)ccc2c1O` [Example 277, N-(4-Chlorobenzyl)-4-hydroxy-7-{[(1-naphthylmethyl)amino]-sulfonyl}-3-quinolinecarboxamide], the IC50 came to 0.77 µM.
On to `CSc1ccc2c(O)c(C(=O)NCc3ccc(Cl)cc3)cnc2c1` [Example 278, N-(4-Chlorobenzyl)-4-hydroxy-7-(methylsulfanyl)-3-quinolinecarboxamide], for which the IC50 turned out to be 2.1 µM.
